Measured values: PubChem BioAssay (NCI)
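Grown in 96-well plates, cells were treated for 48 hours with each compound at five concentrations. Insufficient inhibition: endpoint recorded as highest concentration tested. Definition used: TGI = concentration required for complete inhibition of growth.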

Key:
Experiment in all cases: NCI-60 cell line screen, 48 h
[1] = system: UACC-257 melanoma
[2] = system: NCI-H522 lung
[3] = system: SN12C renal
[4] = system: DMS 114 small cell lung
[5] = system: 786-0 renal
[6] = system: DLD-1 colon
[7] = system: M19-MEL melanoma
[8] = system: EKVX NSCLC
[9] = system: SNB-75 CNS
[10] = system: OVCAR-3 ovarian
[11] = system: HCT-15 colon
[12] = system: NCI-H23 lung
[13] = system: HOP-62 NSCLC
[14] = system: A498 renal
[15] = system: SK-OV-3 ovarian
[16] = system: NCI-H460 lung
[17] = system: SNB-78 CNS
[18] = system: HT29 colon
[19] = system: RPMI-8226 leukemia
[20] = system: SF-268 CNS
[21] = system: OVCAR-8 ovarian
[22] = system: SK-MEL-5 melanoma
[23] = system: K-562 leukemia
[24] = system: MOLT-4 leukemia
[25] = system: HCT-116 colon
[26] = system: CAKI-1 renal
[27] = system: KM12 colon
[28] = system: HOP-92 NSCLC
[29] = system: OVCAR-5 ovarian
[30] = system: KM20L2 colon
[31] = system: NCI-H226 lung
[32] = system: SF-539 CNS
[33] = system: HCC-2998 colon
[34] = system: COLO 205 colon
[35] = system: DMS 273 small cell lung
[36] = system: SW-620 colon
[37] = system: LOX IMVI melanoma
[38] = system: CCRF-CEM leukemia
[39] = system: LXFL 529 NSCLC
[40] = system: ACHN renal
[41] = system: HL-60(TB) leukemia
[42] = system: XF 498 CNS
[43] = system: SK-MEL-2 melanoma
[44] = system: IGROV1 ovarian
[45] = system: OVCAR-4 ovarian
[46] = system: TK-10 renal
[47] = system: SK-MEL-28 melanoma
[48] = system: U251 CNS
[49] = system: A549 NSCLC
[50] = system: UACC-62 melanoma
[51] = system: SF-295 CNS
[52] = system: MALME-3M melanoma
[53] = system: M14 melanoma
[54] = system: UO-31 renal
[55] = system: SR leukemia
[56] = system: RXF 393 renal
[57] = system: SNB-19 CNS
[58] = system: HOP-18 NSCLC
[59] = system: RXF-631 renal

CCN(CC)CCOc1ccc(C(O)(Cc2ccc(OC)cc2)c2ccccc2)cc1 (configuration not stated)
TGI [1]: 30.3 µM
TGI [2]: 40.9 µM
TGI [3]: > 100 µM
TGI [4]: 31.1 µM
TGI [5]: 32.3 µM
TGI [6]: 72.3 µM
TGI [7]: 29.5 µM
TGI [8]: 80.6 µM
TGI [9]: 27.6 µM
TGI [10]: > 100 µM
TGI [11]: 51 µM
TGI [12]: 45.1 µM
TGI [13]: 32.5 µM
TGI [14]: 41.2 µM
TGI [15]: 57.9 µM
TGI [16]: 51.9 µM
TGI [17]: 44.7 µM
TGI [18]: 14.6 µM
TGI [19]: 39.7 µM
TGI [20]: 52 µM
TGI [21]: > 100 µM
TGI [22]: 26.1 µM
TGI [23]: 18.6 µM
TGI [24]: 38.4 µM
TGI [25]: 26.8 µM
TGI [26]: 50.9 µM
TGI [27]: 36.2 µM
TGI [28]: 46 µM
TGI [29]: 61.5 µM
TGI [30]: 9.27 µM
TGI [31]: 77.5 µM
TGI [32]: 25.1 µM
TGI [33]: 27.5 µM
TGI [34]: 24.9 µM
TGI [35]: 28.3 µM
TGI [36]: 34.5 µM
TGI [37]: 29 µM
TGI [38]: 44.9 µM
TGI [39]: 37.2 µM
TGI [40]: 65.3 µM
TGI [41]: 24.9 µM
TGI [42]: 27.5 µM
TGI [43]: 35.9 µM
TGI [44]: 87.8 µM
TGI [45]: 75.3 µM
TGI [46]: 76.4 µM
TGI [47]: 27 µM
TGI [48]: 35.5 µM
TGI [49]: 48.5 µM
TGI [50]: 31 µM
TGI [51]: 33.1 µM
TGI [52]: 33 µM
TGI [53]: 27.8 µM
TGI [54]: 62 µM
TGI [55]: 32 µM
TGI [56]: 30.4 µM
TGI [57]: 67.5 µM

O=C(Nc1ccc(Br)cc1)C(=O)C(C(=O)c1ccccc1F)C1OC(=O)c2ccccc21 (configuration not stated)
TGI [1]: > 100 µM
TGI [2]: 51.6 µM
TGI [3]: 85 µM
TGI [4]: 62.8 µM
TGI [5]: 56.8 µM
TGI [6]: 80.1 µM
TGI [7]: 42.7 µM
TGI [8]: > 100 µM
TGI [9]: 51.6 µM
TGI [10]: > 100 µM
TGI [11]: > 100 µM
TGI [12]: 43.6 µM
TGI [13]: 50.8 µM
TGI [14]: > 100 µM
TGI [15]: > 100 µM
TGI [16]: > 100 µM
TGI [17]: 72.6 µM
TGI [18]: > 100 µM
TGI [19]: 64.8 µM
TGI [20]: 71.5 µM
TGI [21]: 70.3 µM
TGI [22]: 87.1 µM
TGI [23]: > 100 µM
TGI [24]: 92.8 µM
TGI [25]: 35.6 µM
TGI [26]: 94.2 µM
TGI [27]: > 100 µM
TGI [28]: 65.2 µM
TGI [29]: > 100 µM
TGI [30]: > 100 µM
TGI [31]: 19.7 µM
TGI [32]: 66.9 µM
TGI [33]: 32.1 µM
TGI [58]: > 100 µM
TGI [34]: 45.2 µM
TGI [35]: > 100 µM
TGI [36]: > 100 µM
TGI [37]: 44.9 µM
TGI [38]: > 100 µM
TGI [39]: 89.5 µM
TGI [40]: > 100 µM
TGI [41]: 75.6 µM
TGI [43]: 68.6 µM
TGI [44]: > 100 µM
TGI [45]: 76 µM
TGI [46]: > 100 µM
TGI [47]: 50.2 µM
TGI [48]: 51.8 µM
TGI [49]: > 100 µM
TGI [50]: 28.1 µM
TGI [59]: > 100 µM
TGI [52]: 88.6 µM
TGI [53]: 43.9 µM
TGI [54]: 56.6 µM
TGI [57]: > 100 µM
